Assays:
Androgen receptor = target: T1, Androgen receptor (Rattus norvegicus, UniProt P15207); assay type: functional
T1 sequence (P15207 whole entry): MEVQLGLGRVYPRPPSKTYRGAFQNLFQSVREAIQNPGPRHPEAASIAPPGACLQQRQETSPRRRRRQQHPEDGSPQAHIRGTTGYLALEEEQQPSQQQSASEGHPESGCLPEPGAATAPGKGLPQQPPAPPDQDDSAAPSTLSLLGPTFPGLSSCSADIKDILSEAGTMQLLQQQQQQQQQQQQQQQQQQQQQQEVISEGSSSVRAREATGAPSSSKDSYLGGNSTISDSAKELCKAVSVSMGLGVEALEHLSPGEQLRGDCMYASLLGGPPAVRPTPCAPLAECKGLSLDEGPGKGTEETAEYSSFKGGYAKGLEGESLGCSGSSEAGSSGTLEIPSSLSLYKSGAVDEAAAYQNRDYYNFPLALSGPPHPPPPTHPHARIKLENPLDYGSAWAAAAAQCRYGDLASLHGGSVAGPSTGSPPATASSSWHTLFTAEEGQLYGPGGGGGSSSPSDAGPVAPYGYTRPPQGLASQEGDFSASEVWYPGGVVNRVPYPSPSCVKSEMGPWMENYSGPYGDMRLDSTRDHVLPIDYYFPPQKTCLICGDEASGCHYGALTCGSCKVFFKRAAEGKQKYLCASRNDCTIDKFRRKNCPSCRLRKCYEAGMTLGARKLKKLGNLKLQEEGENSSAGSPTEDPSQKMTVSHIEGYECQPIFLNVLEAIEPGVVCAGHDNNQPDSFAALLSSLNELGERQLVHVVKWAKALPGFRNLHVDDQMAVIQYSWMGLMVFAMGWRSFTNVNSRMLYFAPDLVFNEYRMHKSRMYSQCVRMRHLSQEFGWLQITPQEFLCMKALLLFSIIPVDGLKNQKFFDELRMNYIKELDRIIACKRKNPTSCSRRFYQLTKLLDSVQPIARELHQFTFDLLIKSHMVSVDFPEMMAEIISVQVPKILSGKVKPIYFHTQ

[1] = target: Voltage-dependent N-type calcium channel subunit alpha-1B (Rattus norvegicus, UniProt Q02294); assay type: functional
Voltage-dependent N-type calcium channel subunit alpha-1B, sequence (Q02294 whole entry): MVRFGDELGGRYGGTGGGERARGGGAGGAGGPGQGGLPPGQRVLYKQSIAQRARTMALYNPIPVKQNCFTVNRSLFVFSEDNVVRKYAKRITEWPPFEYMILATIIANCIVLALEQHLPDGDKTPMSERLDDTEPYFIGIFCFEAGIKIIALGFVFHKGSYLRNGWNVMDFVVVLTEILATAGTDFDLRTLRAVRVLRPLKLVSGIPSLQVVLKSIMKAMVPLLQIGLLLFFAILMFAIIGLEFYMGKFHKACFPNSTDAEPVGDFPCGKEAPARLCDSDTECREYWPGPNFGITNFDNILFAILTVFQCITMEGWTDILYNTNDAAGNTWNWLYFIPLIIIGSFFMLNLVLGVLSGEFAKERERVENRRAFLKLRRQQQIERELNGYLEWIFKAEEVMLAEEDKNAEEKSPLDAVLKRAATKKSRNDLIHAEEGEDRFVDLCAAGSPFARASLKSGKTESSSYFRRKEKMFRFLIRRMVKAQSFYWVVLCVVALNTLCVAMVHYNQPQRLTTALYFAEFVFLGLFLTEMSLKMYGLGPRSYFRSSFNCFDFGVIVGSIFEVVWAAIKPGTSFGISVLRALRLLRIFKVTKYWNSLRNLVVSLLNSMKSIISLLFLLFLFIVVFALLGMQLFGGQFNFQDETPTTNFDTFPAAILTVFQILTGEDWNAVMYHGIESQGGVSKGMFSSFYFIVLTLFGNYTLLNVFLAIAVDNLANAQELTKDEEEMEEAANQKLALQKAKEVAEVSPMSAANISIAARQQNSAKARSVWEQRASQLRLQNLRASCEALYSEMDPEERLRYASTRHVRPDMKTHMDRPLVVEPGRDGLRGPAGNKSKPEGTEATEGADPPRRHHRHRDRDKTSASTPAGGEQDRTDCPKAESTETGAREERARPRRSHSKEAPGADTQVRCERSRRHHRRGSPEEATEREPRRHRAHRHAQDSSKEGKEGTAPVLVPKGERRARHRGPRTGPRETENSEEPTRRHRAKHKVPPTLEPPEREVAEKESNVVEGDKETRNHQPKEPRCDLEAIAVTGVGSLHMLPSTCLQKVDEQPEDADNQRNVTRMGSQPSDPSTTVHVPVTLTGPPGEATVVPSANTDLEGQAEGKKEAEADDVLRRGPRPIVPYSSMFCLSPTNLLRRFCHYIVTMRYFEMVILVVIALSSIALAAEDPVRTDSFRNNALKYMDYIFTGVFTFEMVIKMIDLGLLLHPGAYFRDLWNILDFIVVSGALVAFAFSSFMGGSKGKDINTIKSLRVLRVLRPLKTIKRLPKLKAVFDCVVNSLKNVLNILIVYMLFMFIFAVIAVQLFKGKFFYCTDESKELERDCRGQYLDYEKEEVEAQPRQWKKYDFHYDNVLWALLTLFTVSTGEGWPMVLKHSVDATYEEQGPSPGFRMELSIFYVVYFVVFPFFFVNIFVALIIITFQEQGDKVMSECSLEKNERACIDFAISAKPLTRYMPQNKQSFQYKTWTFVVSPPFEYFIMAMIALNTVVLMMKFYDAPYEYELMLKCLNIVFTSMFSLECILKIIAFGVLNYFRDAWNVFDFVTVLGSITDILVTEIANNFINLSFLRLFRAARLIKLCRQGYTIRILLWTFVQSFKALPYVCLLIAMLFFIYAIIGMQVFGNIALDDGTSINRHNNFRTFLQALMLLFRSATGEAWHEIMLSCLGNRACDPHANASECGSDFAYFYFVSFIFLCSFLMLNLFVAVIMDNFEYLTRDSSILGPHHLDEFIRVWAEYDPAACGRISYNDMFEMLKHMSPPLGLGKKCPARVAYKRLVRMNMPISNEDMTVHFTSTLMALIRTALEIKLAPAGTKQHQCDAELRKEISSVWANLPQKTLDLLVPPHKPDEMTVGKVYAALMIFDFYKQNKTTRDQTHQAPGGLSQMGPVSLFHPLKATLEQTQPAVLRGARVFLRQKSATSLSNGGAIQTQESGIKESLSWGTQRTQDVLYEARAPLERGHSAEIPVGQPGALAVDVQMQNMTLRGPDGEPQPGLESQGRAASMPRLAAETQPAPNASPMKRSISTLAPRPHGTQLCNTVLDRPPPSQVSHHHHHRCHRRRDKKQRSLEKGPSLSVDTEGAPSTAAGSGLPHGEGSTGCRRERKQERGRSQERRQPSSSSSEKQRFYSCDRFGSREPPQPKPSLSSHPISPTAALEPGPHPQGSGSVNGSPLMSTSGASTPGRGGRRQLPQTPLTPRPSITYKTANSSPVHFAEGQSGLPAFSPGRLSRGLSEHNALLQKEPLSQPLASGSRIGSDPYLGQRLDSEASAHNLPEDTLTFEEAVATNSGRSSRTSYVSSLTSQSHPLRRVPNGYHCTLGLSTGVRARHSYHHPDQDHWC

[2] = target: T2, Endothelin receptor type B (Homo sapiens, UniProt P24530)
T2 sequence (P24530 whole entry): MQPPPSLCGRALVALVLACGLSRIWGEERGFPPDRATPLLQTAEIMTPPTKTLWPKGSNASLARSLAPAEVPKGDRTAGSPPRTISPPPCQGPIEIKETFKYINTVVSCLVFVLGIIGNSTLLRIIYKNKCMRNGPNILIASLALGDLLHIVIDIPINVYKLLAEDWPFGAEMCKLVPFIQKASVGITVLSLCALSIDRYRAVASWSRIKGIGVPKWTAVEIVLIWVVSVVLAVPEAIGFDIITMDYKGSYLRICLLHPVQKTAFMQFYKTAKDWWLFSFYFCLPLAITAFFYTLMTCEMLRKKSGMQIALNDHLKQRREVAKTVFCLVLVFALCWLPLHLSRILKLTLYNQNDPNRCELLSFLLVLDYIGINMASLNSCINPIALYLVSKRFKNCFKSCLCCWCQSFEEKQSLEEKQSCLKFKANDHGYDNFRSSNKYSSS

[3] = target: T3, Muscarinic acetylcholine receptor M2 (Homo sapiens, UniProt P08172)
T3 sequence (P08172 whole entry): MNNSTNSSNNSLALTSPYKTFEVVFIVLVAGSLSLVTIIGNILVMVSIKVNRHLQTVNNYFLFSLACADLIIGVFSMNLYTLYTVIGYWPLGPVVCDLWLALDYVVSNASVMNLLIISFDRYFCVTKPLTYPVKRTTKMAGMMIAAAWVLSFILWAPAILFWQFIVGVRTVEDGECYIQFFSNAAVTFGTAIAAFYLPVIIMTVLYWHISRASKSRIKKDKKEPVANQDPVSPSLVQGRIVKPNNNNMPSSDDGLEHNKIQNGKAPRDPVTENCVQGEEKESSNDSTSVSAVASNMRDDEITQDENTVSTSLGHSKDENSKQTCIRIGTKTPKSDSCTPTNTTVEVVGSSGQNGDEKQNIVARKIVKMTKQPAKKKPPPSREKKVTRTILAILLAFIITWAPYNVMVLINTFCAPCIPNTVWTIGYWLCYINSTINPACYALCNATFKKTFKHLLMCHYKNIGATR

Histamine H1 receptor = Histamine H1 receptor (Homo sapiens, UniProt P35367)
Histamine H1 receptor, sequence (P35367 whole entry): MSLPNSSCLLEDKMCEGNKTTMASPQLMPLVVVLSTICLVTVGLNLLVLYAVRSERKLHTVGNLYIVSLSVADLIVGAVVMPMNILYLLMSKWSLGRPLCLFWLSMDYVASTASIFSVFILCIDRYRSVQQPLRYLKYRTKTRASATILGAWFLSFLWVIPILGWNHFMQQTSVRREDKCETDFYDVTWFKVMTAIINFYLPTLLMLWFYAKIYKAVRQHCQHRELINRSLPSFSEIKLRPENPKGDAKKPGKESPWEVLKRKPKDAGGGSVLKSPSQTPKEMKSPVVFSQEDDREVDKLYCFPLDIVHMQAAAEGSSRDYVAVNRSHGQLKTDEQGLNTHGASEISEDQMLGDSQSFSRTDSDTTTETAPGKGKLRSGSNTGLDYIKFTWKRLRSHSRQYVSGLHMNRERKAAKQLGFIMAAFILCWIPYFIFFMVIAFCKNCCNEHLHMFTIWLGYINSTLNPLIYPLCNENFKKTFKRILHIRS
Also: assay procedure not described here.

Compound | AC50 (Androgen receptor) [µM] | AC50 [1] [µM] | AC50 [2] [µM] | AC50 [3] [µM] | AC50 (Histamine H1 receptor) [µM]
CC1(C)S[C@@H]2[C@H](NC(=O)[C@H](N)c3ccc(O)cc3)C(=O)N2[C@H]1C(=O)O [AMOXICILLIN] | > 30 | > 10 | > 30 | > 10 | –
COC(=O)[C@H](c1ccccc1Cl)N1CCc2sccc2C1 [CLOPIDOGREL] | – | > 10 | > 30 | > 10 | –
CN1C[C@H](C(=O)N[C@]2(C)O[C@@]3(O)[C@@H]4CCCN4C(=O)[C@H](Cc4ccccc4)N3C2=O)C[C@@H]2c3cccc4[nH]cc(c34)C[C@H]21 [DIHYDROERGOTAMINE] | – | > 10 | > 30 | > 10 | –
Cc1cnc(NC(=O)C2=C(O)c3ccccc3S(=O)(=O)N2C)s1 [MELOXICAM] | – | > 10 | > 30 | > 10 | –
COc1ccnc(C[S+]([O-])c2nc3ccc(OC(F)F)cc3[nH]2)c1OC (configuration not stated) [PANTOPRAZOLE] | – | > 10 | > 30 | > 10 | –
CNC[C@H](O)c1cccc(O)c1 [PHENYLEPHRINE] | – | > 10 | > 30 | > 10 | > 10
CCCN(CCC)CCc1cccc2c1CC(=O)N2 [ROPINIROLE] | – | > 10 | > 30 | 12.1 | 14
CC(=O)S[C@@H]1CC2=CC(=O)CC[C@]2(C)[C@H]2CC[C@@]3(C)[C@@H](CC[C@@]34CCC(=O)O4)[C@H]12 [SPIRONOLACTONE] | – | > 10 | > 30 | > 10 | –
CCCCNc1ccc(C(=O)OCCN(C)C)cc1 [TETRACAINE] | – | > 10 | > 30 | > 10 | –
Cn1c(=O)c2[nH]cnc2n(C)c1=O [THEOPHYLLINE] | – | > 10 | > 30 | > 10 | –
CC1(C)O[C@@H]2[C@@H](CO[C@@]3(COS(N)(=O)=O)OC(C)(C)O[C@@H]23)O1 [TOPIRAMATE] | – | > 10 | > 30 | > 10 | > 10

Source: ChEMBL document CHEMBL5291721, “A preclinical secondary pharmacology resource illuminates target-adverse drug reaction associations of marketed drugs” (Nat Commun, 2023)
